According to the supplement of paper PMC11061612:

Tests used:
Assay in all cases: combination Emax (second highest fraction inhibited in the dose matrix, 72 h); higher = more inhibition; extreme values may be limits of the assay
[1] = system: DND-41 (T-Lymphoblastic Leukemia)
Summary of the method: (§1)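 Cell lines grown in DMEM/F12 or RPMI with 10% FBS were plated in 1536-well plates and held 24 hours at 37°C, 5% CO2 before 72 hours of exposure to two-drug dose matrices, with DMSO typically at 0.2%. CellTiter-Glo 2.0 luminescence gave viability, which was converted to inhibition. Vehicle wells were set to 0 and blank wells to 1. Combination Emax is the second-highest inhibition in the matrix, and Bliss excess is the observed combination effect minus the expected EA + EB − EA·EB, where EA and EB are the single-agent effects.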

[2] = system: HL-60 (Acute Myeloid Leukemia)
Summary of the method: as §1

[3] = system: KCL-22 (Chronic Myelogenous Leukemia)
Summary of the method: as §1

[4] = system: COLO-678 (Colorectal Carcinoma)
Summary of the method: as §1

[5] = system: KARPAS-45 (T-Lymphoblastic Leukemia)
Summary of the method: as §1

[6] = system: BL-41 (Burkitt's Lymphoma)
Summary of the method: as §1

[7] = system: MS751 (Cervical Carcinoma)
Summary of the method: as §1

[8] = system: SU-DHL-8 (B-Cell Non-Hodgkin's Lymphoma)
Summary of the method: as §1

[9] = system: KM12 (Colorectal Carcinoma)
Summary of the method: as §1

[10] = system: SW1417 (Colorectal Carcinoma)
Summary of the method: as §1

[11] = system: L-540 (Hodgkin's Lymphoma)
Summary of the method: as §1

[12] = system: BFTC-905 (Bladder Carcinoma)
Summary of the method: as §1

CHP-212 (Neuroblastoma) = system: CHP-212 (Neuroblastoma)
Summary of the method: as §1

[13] = system: SR (Other Blood Carcinomas)
Summary of the method: as §1

[14] = system: CAMA-1 (Breast Carcinoma)
Summary of the method: as §1

[15] = system: NCI-H1792 (Lung Adenocarcinoma)
Summary of the method: as §1

[16] = system: MFM-223 (Breast Carcinoma)
Summary of the method: as §1

[17] = system: MOLT-16 (T-Lymphoblastic Leukemia)
Summary of the method: as §1

[18] = system: PANC-08-13 (Pancreatic Carcinoma)
Summary of the method: as §1

[19] = system: TOV-112D (Ovarian Carcinoma)
Summary of the method: as §1

Row | Structure (SMILES) | combination Emax [1] | combination Emax [2] | combination Emax [3] | combination Emax [4] | combination Emax [5] | combination Emax [6] | combination Emax [7] | combination Emax [8] | combination Emax [9] | combination Emax [10] | combination Emax [11] | combination Emax [12] | combination Emax (CHP-212 (Neuroblastoma)) | combination Emax [13] | combination Emax [14] | combination Emax [15] | combination Emax [16] | combination Emax [17] | combination Emax [18] | combination Emax [19]
1 | CC1(C)CCC(CN2CCN(c3ccc(C(=O)NS(=O)(=O)c4ccc(NCC5CCOCC5)c([N+](=O)[O-])c4)c(Oc4cnc5[nH]ccc5c4)c3)CC2)=C(c2ccc(Cl)cc2)C1 [Venetoclax] + C1CN(CCC1(C(=O)N[C@@H](CCO)C2=CC=C(C=C2)Cl)N)C3=NC=NC4=C3C=CN4 [Capivasertib] (first compound max 1 µM, 7x7, partner max 3 µM) | 0.921 | 0.781 | 0.183 | 0.0815 | 0.81 | 0.252 | 0.138 | 0.254 | 0.501 | 0.193 | 0.638 | 0.193 | 0.152 | 0.835 | 0.63 | 0.223 | 0.639 | 1 | 0.189 | 0.0882
2 | CC1(C)CCC(CN2CCN(c3ccc(C(=O)NS(=O)(=O)c4ccc(NCC5CCOCC5)c([N+](=O)[O-])c4)c(Oc4cnc5[nH]ccc5c4)c3)CC2)=C(c2ccc(Cl)cc2)C1 [Venetoclax] + C=CCn1c(=O)c2cnc(Nc3ccc(N4CCN(C)CC4)cc3)nc2n1-c1cccc(C(C)(C)O)n1 [AZD1775] (first compound max 1 µM, partner max 1 µM) | 1 | 0.899 | 0.943 | 0.328 | 0.955 | 1 | 0.261 | 1 | 0.781 | 0.505 | 0.957 | 0.799 | 0.769 | 0.995 | 0.38 | 0.828 | 0.457 | 1 | 0.328 | 0.393
3 | CC1(C)CCC(CN2CCN(c3ccc(C(=O)NS(=O)(=O)c4ccc(NCC5CCOCC5)c([N+](=O)[O-])c4)c(Oc4cnc5[nH]ccc5c4)c3)CC2)=C(c2ccc(Cl)cc2)C1 [Venetoclax] + CCN(CCO)CCCOc1ccc2c(Nc3cc(CC(=O)Nc4cccc(F)c4)[nH]n3)ncnc2c1 [AZD2811] (first compound max 1 µM, 7x7, partner max 1 µM) | 0.94 | 0.918 | 0.376 | 0.245 | 0.96 | 0.604 | 0.424 | 0.414 | 0.17 | 0.209 | 0.723 | 0.354 | 0.74 | 0.946 | 0.224 | 0.216 | 0.252 | 1 | 0.212 | 0.266
4 | CC1(C)CCC(CN2CCN(c3ccc(C(=O)NS(=O)(=O)c4ccc(NCC5CCOCC5)c([N+](=O)[O-])c4)c(Oc4cnc5[nH]ccc5c4)c3)CC2)=C(c2ccc(Cl)cc2)C1 [Venetoclax] + CN(C)CCCOc1ccc(-c2ccc3ncc4c(c3c2)n(C2CCOCC2)c(=O)n4C)cn1 [AZD0156] (first compound max 1 µM, 7x7, partner max 1 µM) | 0.893 | 0.71 | 0.212 | 0.187 | 0.478 | 0.163 | 0.198 | 0.334 | 0.17 | 0.266 | 0.886 | 0.588 | 0.17 | 0.907 | 0.145 | 0.223 | 0.155 | 0.699 | 0.189 | 0.131
5 | CC1(C)CCC(CN2CCN(c3ccc(C(=O)NS(=O)(=O)c4ccc(NCC5CCOCC5)c([N+](=O)[O-])c4)c(Oc4cnc5[nH]ccc5c4)c3)CC2)=C(c2ccc(Cl)cc2)C1 [Venetoclax] + COc1cc(Nc2ncc3c(n2)-c2ccc(Cl)cc2C(c2c(F)cccc2OC)=NC3)ccc1C(=O)O [Alisertib] (first compound max 1 µM, 7x7, partner max 10 µM) | 0.947 | 0.923 | 0.811 | 0.181 | 0.982 | 0.978 | 0.724 | 0.83 | 0.598 | 0.235 | 0.89 | 0.671 | 0.855 | 0.966 | 0.341 | 0.65 | 0.849 | 1 | 0.302 | 0.684
6 | CC1(C)CCC(CN2CCN(c3ccc(C(=O)NS(=O)(=O)c4ccc(NCC5CCOCC5)c([N+](=O)[O-])c4)c(Oc4cnc5[nH]ccc5c4)c3)CC2)=C(c2ccc(Cl)cc2)C1 [Venetoclax] + C[C@@H]1COCCN1C2=NC(=NC(=C2)C3(CC3)[S@](=N)(=O)C)C4=C5C=CNC5=NC=C4 [AZD6738] (first compound max 1 µM, 7x7, partner max 10 µM) | 0.987 | 0.933 | 0.951 | 0.164 | 0.941 | 0.999 | 0.424 | 0.99 | 0.641 | 0.391 | 0.959 | 0.835 | 0.792 | 0.973 | 0.41 | 0.725 | 0.752 | 1 | 0.421 | 0.656
